Literature values in patent US11135586B2, “Fluorinated pickering emulsion” (The Board of Trustees of the Leland Stanford Junior …, priority 2014, dated 2021).

O=C1OC2(c3ccc(O)cc3Oc3cc(O)ccc32)c2ccccc21 [fluorescein]
Time without leakage in drops stabilized by surfactants: at least 36 hours
